From patent US20080161232A1, “C5a Receptor Antagonist” (JERINI AG, priority 2005, published 2008) come the findings set out here.

SMILES strings stand for the structures. Starred links: 1 amine or outer side, 2 acyl side, 3 side chain; linkers in the order of their positions; H or OH if unused. Positions of bridges follow the written chain, without caps; N, C: chain ends. Non-standard residues stand in square brackets, D forms with d. Residues, ends and D or L forms follow the SMILES beside them. *: point of attachment. Phe(Nα-CONH2) = NC(=O)N[C@@H](Cc1ccccc1)C(=O)*; Phe(2-CF3) = N[C@@H](Cc1ccccc1C(F)(F)F)C(=O)O; Decanoyl(3,6,9-trioxa) = COCCOCCOCC(=O)*; Phe(3-Cl) = N[C@@H](Cc1cccc(Cl)c1)C(=O)O; Phe(4-Cl) = N[C@@H](Cc1ccc(Cl)cc1)C(=O)O; Phe(4-NH2) = Nc1ccc(C[C@H](N)C(=O)O)cc1; Phe(2-Cl) = N[C@@H](Cc1ccccc1Cl)C(=O)O; Phe(4-F) = N[C@@H](Cc1ccc(F)cc1)C(=O)O; Bta = N[C@@H](Cc1csc2ccccc12)C(=O)O; Hyp = O=C(O)[C@@H]1C[C@@H](O)CN1; d(hLeu) = CC(C)CC[C@@H](N)C(=O)O; hArg = N=C(N)NCCCC[C@H](N)C(=O)O; 2Thi = N[C@@H](Cc1cccs1)C(=O)O; Cit = NC(=O)NCCC[C@H](N)C(=O)O; dCha = N[C@H](CC1CCCCC1)C(=O)O; dChg = N[C@@H](C(=O)O)C1CCCCC1; Chg = N[C@H](C(=O)O)C1CCCCC1; NHPhenethyl = c1ccc(CCN*)cc1; Nle = CCCC[C@H](N)C(=O)O; Orn = NCCC[C@H](N)C(=O)O; Aze = O=C(O)[C@@H]1CCN1; CO = O=C([*:1])[*:2]; Ms = CS(=O)(=O)*; βAla = NCCC(=O)O; NHBu = CCCCN*

For the assay, the target named is T1, human C5aR(CD88) (Homo sapiens, UniProt P21730).
T1 construct: expressed in transfected cells; host or cells: rat basophilic leukemia cells (RBL)
T1 sequence (P21730 1-350): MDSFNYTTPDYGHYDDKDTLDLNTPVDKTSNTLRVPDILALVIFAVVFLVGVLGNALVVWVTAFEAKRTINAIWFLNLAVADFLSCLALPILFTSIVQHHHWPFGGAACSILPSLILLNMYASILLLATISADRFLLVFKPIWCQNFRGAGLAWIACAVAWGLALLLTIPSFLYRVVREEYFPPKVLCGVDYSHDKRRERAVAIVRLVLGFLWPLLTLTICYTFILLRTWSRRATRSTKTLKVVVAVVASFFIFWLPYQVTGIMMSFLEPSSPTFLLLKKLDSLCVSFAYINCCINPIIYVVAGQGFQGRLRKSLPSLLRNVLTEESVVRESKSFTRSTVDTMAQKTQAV
The experiment in a line: Determination of the IC50 value in an enzyme release assay (functional assay, antagonistic activity). Format: cell-based. To be noted: antagonistic activity; IC50 group in enzyme release assay, RBL cells expressing human C5aR(CD88); read-out: activity (group).
With `CC(=O)N[C@@H](CCCNC(N)=O)C(=O)N[C@@H](Cc1ccccc1)C(=O)N[C@@H](CCCN)C(=O)N1CC[C@H]1C(=O)N[C@H](CC1CCCCC1)C(=O)N[C@@H](Cc1csc2ccccc12)C(=O)N[C@@H](Cc1ccccc1)C(N)=O` [Compound 153, Ac-Cit-Phe-Orn-Aze-cha-Bta-Phe-NH2] (Ac-[Cit]F[Orn][Aze][dCha][Bta]F-NH2), the IC50 lay within 20 to 50 nM.
The figure for `CC(C)CC[C@H]1NC(=O)[C@H](CO)NC(=O)[C@@H](NC(=O)[C@@H](N)Cc2ccccc2)CCCNC(=O)[C@H](CC(C)C)NC(=O)[C@H](Cc2cccc(Cl)c2)NC1=O` [Compound 385, H-Phe-[Orn-Ser-hle-Mcf-Leu]] (H-F[Orn]S[d(hLeu)][Phe(3-Cl)]L; lactam 2-C) is 50 to 200 nM.
For `CC(=O)NCC(=O)N[C@@H](Cc1ccccc1)C(=O)N[C@@H](CCCN)C(=O)N1CC[C@H]1C(=O)N[C@@H](C(=O)N[C@@H](Cc1csc2ccccc12)C(=O)N[C@@H](Cc1ccccc1)C(N)=O)C1CCCCC1` [Compound 155, Ac-Gly-Phe-Orn-Aze-chg-Bta-Phe-NH2] (Ac-GF[Orn][Aze][dChg][Bta]F-NH2) the value was 50 to 200 nM; for `CC(=O)N[C@@H](Cc1ccccc1)C(=O)N[C@H]1CCCNC(=O)[C@H](CCCCNC(=N)N)NC(=O)[C@H](Cc2c[nH]c3ccccc23)NC(=O)[C@@H](CC2CCCCC2)NC(=O)[C@@H]2CCCN2C1=O` [compound 8], 200 to 2000 nM.
For `CCCC[C@@H]1NC(=O)[C@H](Cc2c[nH]c3ccccc23)NC(=O)[C@@H](CCC(C)C)NC(=O)[C@@H]2C[C@@H](O)CN2C(=O)[C@@H](NC(=O)[C@H](Cc2ccccc2)NC(=O)CCN)CCCNC1=O` [Compound 342, H-Bal-Phe-[Orn-Hyp-hle-Trp-Nle]] (H-[βAla]F[Orn][Hyp][d(hLeu)]W[Nle]; lactam 3-C) the value was 50 to 200 nM; for `CC(=O)N[C@@H](Cc1ccccc1)C(=O)N[C@@H](CCCN)C(=O)N1CCC[C@H]1C(=O)N[C@@H](C(=O)N[C@@H](Cc1c[nH]c2ccccc12)C(=O)N[C@@H](Cc1ccccc1)C(=O)O)C1CCCCC1` [Compound 118, Ac-Phe-Orn-Pro-chg-Trp-Phe-OH] (Ac-F[Orn]P[dChg]WF-OH), 200 to 2000 nM.
As to `CC(=O)N[C@@H](Cc1ccccc1)C(=O)N[C@@H](CCCN)C(=O)N1CCC[C@H]1C(=O)N[C@H](CC1CCCCC1)C(=O)N[C@@H](Cc1csc2ccccc12)C(=O)N[C@@H](Cc1ccc(Cl)cc1)C(N)=O` [Compound 259, Ac-Phe-Orn-Pro-cha-Bta-Pcf-NH2] (Ac-F[Orn]P[dCha][Bta][Phe(4-Cl)]-NH2), the IC50 lay in the range of 20 to 50 nM.
For `COCCOCCOCC(=O)N[C@@H](Cc1ccccc1)C(=O)N[C@H]1CCCNC(=O)[C@H](Cc2ccccc2)NC(=O)[C@H](Cc2c[nH]c3ccccc23)NC(=O)[C@@H](CC2CCCCC2)NC(=O)[C@@H]2C[C@@H](O)CN2C1=O` [Compound 337, Fhi-Phe-[Orn-Hyp-cha-Trp-Phe]] ({Decanoyl(3,6,9-trioxa)}-F[Orn][Hyp][dCha]WF; lactam 2-C) the value was 50 to 200 nM; for `CC(=O)N[C@@H](Cc1ccccc1)C(=O)N[C@@H](CCCN)C(=O)N1CCC[C@H]1C(=O)N[C@H](CC1CCCCC1)C(=O)N[C@@H](Cc1csc2ccccc12)C(=O)N[C@@H](Cc1cccs1)C(N)=O` [Compound 261, Ac-Phe-Orn-Pro-cha-Bta-Thi-NH2] (Ac-F[Orn]P[dCha][Bta][2Thi]-NH2), 10 to 20 nM.
The figure for `CCCC[C@@H]1NC(=O)[C@H](Cc2c[nH]c3ccccc23)NC(=O)[C@@H](CC2CCCCC2)NC(=O)[C@H](CC(N)=O)NC(=O)[C@@H](NC(=O)[C@H](Cc2ccccc2)NC(C)=O)CCCNC1=O` [Compound 173, Ac-Phe-[Orn-Asn-cha-Trp-Nle]] (Ac-F[Orn]N[dCha]W[Nle]; lactam 2-C) is 50 to 200 nM.
The figure for `CS(=O)(=O)N[C@@H](Cc1ccccc1)C(=O)N[C@@H](CCCN)C(=O)N1CC[C@H]1C(=O)N[C@H](CC1CCCCC1)C(=O)N[C@@H](Cc1csc2ccccc12)C(=O)N[C@@H](Cc1ccccc1)C(N)=O` [Compound 96, CH3—SO2-Phe-Orn-Aze-cha-Bta-Phe-NH2] (Ms-F[Orn][Aze][dCha][Bta]F-NH2) is 20 to 50 nM; for `CC(=O)N[C@@H](Cc1ccccc1)C(=O)N[C@H]1CCCNC(=O)[C@H](CCCN=C(N)N)NC(=O)[C@H](C)NC(=O)[C@@H](CC2CCCCC2)NC(=O)[C@@H]2CCCN2C1=O` [compound 48] (Ac-F[Orn]P[dCha]AR; lactam 2-C) it is over 2000 nM; for `CC(=O)N[C@@H](Cc1ccccc1)C(=O)N[C@H]1CCCNC(=O)[C@H](CCC/N=C(/N)N[N+](=O)[O-])NC(=O)[C@H](Cc2c[nH]c3ccccc23)NC(=O)[C@@H](CC2CCCCC2)NC(=O)[C@@H]2CCCN2C1=O` [compound 11] it is 200 to 2000 nM.
For the molecule `CCCCNC(=O)N[C@@H](Cc1ccccc1)C(=O)N[C@@H](CCCN)C(=O)N1CCC[C@H]1C(=O)N[C@H](CC1CCCCC1)C(=O)N[C@@H](Cc1c[nH]c2ccccc12)C(=O)N[C@@H](Cc1ccccc1)C(N)=O` [Compound 76, Bu-NH—CO-Phe-Orn-Pro-cha-Trp-Phe-NH2] ({NHBu-CO}-F[Orn]P[dCha]WF-NH2), the IC50 fell in the range of 200 to 2000 nM.
The figure for `CC(=O)N[C@@H](Cc1cccs1)C(=O)N[C@@H](CCCN)C(=O)N1CCC[C@H]1C(=O)N[C@H](CC1CCCCC1)C(=O)N[C@@H](Cc1csc2ccccc12)C(=O)N[C@@H](Cc1ccccc1)C(N)=O` [Compound 312, Ac-Thi-Orn-Pro-cha-Bta-Phe-NH2] (Ac-[2Thi][Orn]P[dCha][Bta]F-NH2) is 20 to 50 nM; for `CC(C)CC[C@H]1NC(=O)[C@@H]2C[C@@H](O)CN2C(=O)[C@@H](NC(=O)[C@@H](N)Cc2ccccc2)CCCNC(=O)[C@H](Cc2ccccc2)NC(=O)[C@H](Cc2c[nH]c3ccccc23)NC1=O` [Compound 371, H-Phe-[Orn-Hyp-hle-Trp-Phe]] (H-F[Orn][Hyp][d(hLeu)]WF; lactam 2-C) it is 20 to 50 nM.
The figure for `NC(=O)N[C@@H](Cc1ccccc1)C(=O)N[C@H]1CCCNC(=O)[C@H](Cc2ccccc2)NC(=O)[C@H](Cc2c[nH]c3ccccc23)NC(=O)[C@@H](CC2CCCCC2)NC(=O)[C@@H]2C[C@@H](O)CN2C1=O` [Compound 323, Fai-Phe-[Orn-Hyp-cha-Trp-Phe]] ({Phe(Nα-CONH2)}-[Orn][Hyp][dCha]WF; lactam 1-C) is 50 to 200 nM; for `CC(=O)N[C@@H](Cc1ccccc1)C(=O)N[C@@H](CCCCNC(=N)N)C(=O)N1CCC[C@H]1C(=O)N[C@H](CC1CCCCC1)C(=O)N[C@@H](Cc1csc2ccccc12)C(=O)N[C@@H](Cc1ccccc1)C(N)=O` [Compound 121, Ac-Phe-Har-Pro-cha-Bta-Phe-NH2] (Ac-F[hArg]P[dCha][Bta]F-NH2) it is 20 to 50 nM.
For `CC(=O)N[C@@H](Cc1ccccc1)C(=O)N[C@@H](CCCN)C(=O)N1CCC[C@H]1C(=O)N[C@H](CCC(C)C)C(=O)N[C@@H](Cc1csc2ccccc12)C(=O)N[C@@H](Cc1ccc(F)cc1)C(N)=O` [Compound 279, Ac-Phe-Orn-Pro-hle-Bta-Pff-NH2] (Ac-F[Orn]P[d(hLeu)][Bta][Phe(4-F)]-NH2) the value was 50 to 200 nM; for `CC(C)CC[C@H]1NC(=O)[C@@H]2CCCN2C(=O)[C@@H](NC(=O)[C@@H](N)Cc2ccccc2)CCCNC(=O)[C@H](Cc2ccccc2)NC(=O)[C@H](Cc2ccccc2Cl)NC1=O` [Compound 378, H-Phe-[Orn-Pro-hle-Ocf-Phe]] (H-F[Orn]P[d(hLeu)][Phe(2-Cl)]F; lactam 2-C), 50 to 200 nM.
For `CC(=O)N[C@@H](Cc1ccccc1)C(=O)N[C@@H](CCCN)C(=O)N1CCC[C@H]1C(=O)N[C@H](CC1CCCCC1)C(=O)N[C@@H](Cc1c[nH]c2ccccc12)C(=O)NCCc1ccccc1` [Compound 72, Ac-Phe-Orn-Pro-cha-Trp-NH—CH2—CH2-Ph] (Ac-F[Orn]P[dCha]W-NHPhenethyl), the IC50 lay in the range of 200 to 2000 nM.
Consider `CC(=O)N[C@@H](Cc1ccccc1)C(=O)N[C@H]1CCCNC(=O)[C@H](C2CCCCC2)NC(=O)[C@H](Cc2c[nH]c3ccccc23)NC(=O)[C@@H](CC2CCCCC2)NC(=O)[C@@H]2CCCN2C1=O` [Compound 190, Ac-Phe-[Orn-Pro-cha-Trp-Chg]] (Ac-F[Orn]P[dCha]W[Chg]; lactam 2-C), for which the IC50 lay within 50 to 200 nM.
For `CC(=O)N[C@@H](CO)C(=O)N[C@@H](Cc1ccccc1)C(=O)N[C@@H](CCCN)C(=O)N1CC[C@H]1C(=O)N[C@H](CC1CCCCC1)C(=O)N[C@@H](Cc1csc2ccccc12)C(=O)N[C@@H](Cc1ccccc1)C(N)=O` [Compound 139, Ac-Ser-Phe-Orn-Aze-cha-Bta-Phe-NH2] (Ac-SF[Orn][Aze][dCha][Bta]F-NH2), the IC50 was in the range of 50 to 200 nM.
For `CC(=O)N[C@@H](Cc1ccccc1)C(=O)N[C@@H](Cc1ccc(N)cc1)C(=O)N1CCC[C@H]1C(=O)N[C@H](CC1CCCCC1)C(=O)N[C@@H](Cc1csc2ccccc12)C(=O)N[C@@H](Cc1ccccc1)C(N)=O` [Compound 127, Ac-Phe-Paf-Pro-cha-Bta-Phe-NH2] (Ac-F[Phe(4-NH2)]P[dCha][Bta]F-NH2) the value was 200 to 2000 nM; for `CC(=O)N[C@@H](Cc1ccccc1)C(=O)N[C@@H](CCCN)C(=O)N1CCC[C@H]1C(=O)N[C@H](CC1CCCCC1)C(=O)N[C@@H](Cc1ccccc1C(F)(F)F)C(=O)N[C@@H](Cc1ccccc1)C(N)=O` [Compound 262, Ac-Phe-Orn-Pro-cha-Otf-Phe-NH2] (Ac-F[Orn]P[dCha][Phe(2-CF3)]F-NH2), 50 to 200 nM.
`CC(=O)N[C@@H](Cc1ccccc1)C(=O)N[C@@H](CCCN)C(=O)N1CCC[C@H]1C(=O)N[C@H](CCC(C)C)C(=O)N[C@@H](Cc1csc2ccccc12)C(=O)N[C@@H](Cc1ccccc1)C(N)=O` [Compound 280, Ac-Phe-Orn-Pro-hle-Bta-Phe-NH2] (Ac-F[Orn]P[d(hLeu)][Bta]F-NH2): the IC50 was in the range of 20 to 50 nM.
